# Experimental data: PubChem BioAssay (NCI)
#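 1) Cells in 96-well plates. 2) Compound, 48 h, 5 concentrations. 3) Linear interpolation between surrounding doses. 4) Unreached endpoint = highest concentration. TGI is the concentration that stops growth completely.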
# Columns and labels:
# Experiment in all cases: NCI tumour cell line growth inhibition, 48 h
# SR leukemia = system: SR leukemia
# SK-MEL-2 melanoma = system: SK-MEL-2 melanoma
# MALME-3M melanoma = system: MALME-3M melanoma
# T-47D breast = system: T-47D breast
# CAKI-1 renal = system: CAKI-1 renal
# IGROV1 ovarian = system: IGROV1 ovarian
# SF-268 CNS = system: SF-268 CNS
# HT29 colon = system: HT29 colon
# HS 578T breast = system: HS 578T breast
# A549 NSCLC = system: A549 NSCLC
# SK-MEL-5 melanoma = system: SK-MEL-5 melanoma
# M14 melanoma = system: M14 melanoma
# RPMI-8226 leukemia = system: RPMI-8226 leukemia
# OVCAR-3 ovarian = system: OVCAR-3 ovarian
# KM12 colon = system: KM12 colon
# NCI-H460 lung = system: NCI-H460 lung
# ACHN renal = system: ACHN renal
# OVCAR-4 ovarian = system: OVCAR-4 ovarian
# CCRF-CEM leukemia = system: CCRF-CEM leukemia
# HCT-116 colon = system: HCT-116 colon
# NCI-H23 lung = system: NCI-H23 lung
# MCF7 breast = system: MCF7 breast
# COLO 205 colon = system: COLO 205 colon
# MDA-N = system: MDA-N
# 786-0 renal = system: 786-0 renal
# RXF 393 renal = system: RXF 393 renal
# SNB-75 CNS = system: SNB-75 CNS
# PC-3 prostate = system: PC-3 prostate
# SW-620 colon = system: SW-620 colon
# HOP-92 NSCLC = system: HOP-92 NSCLC
# MDA-MB-435 = system: MDA-MB-435
# UACC-257 melanoma = system: UACC-257 melanoma
# NCI-H522 lung = system: NCI-H522 lung
# HCT-15 colon = system: HCT-15 colon
# SN12C renal = system: SN12C renal
# TK-10 renal = system: TK-10 renal
# MDA-MB-231 breast = system: MDA-MB-231 breast
# MOLT-4 leukemia = system: MOLT-4 leukemia
# SK-OV-3 ovarian = system: SK-OV-3 ovarian
# OVCAR-8 ovarian = system: OVCAR-8 ovarian
# SF-295 CNS = system: SF-295 CNS
# OVCAR-5 ovarian = system: OVCAR-5 ovarian
# K-562 leukemia = system: K-562 leukemia
# UACC-62 melanoma = system: UACC-62 melanoma
# DU-145 prostate = system: DU-145 prostate
# EKVX NSCLC = system: EKVX NSCLC
# HOP-62 NSCLC = system: HOP-62 NSCLC
# SF-539 CNS = system: SF-539 CNS
# LOX IMVI melanoma = system: LOX IMVI melanoma
# SNB-19 CNS = system: SNB-19 CNS
# NCI/ADR-RES ovarian = system: NCI/ADR-RES ovarian
# NCI-H226 lung = system: NCI-H226 lung
# HCC-2998 colon = system: HCC-2998 colon
# U251 CNS = system: U251 CNS
# SK-MEL-28 melanoma = system: SK-MEL-28 melanoma
# HL-60(TB) leukemia = system: HL-60(TB) leukemia
# UO-31 renal = system: UO-31 renal
# A498 renal = system: A498 renal
smiles,measurement,setting,value
CC12OC(=O)[C@@]3(O)CCC4C(C[C@H]5O[C@]56CC=CC(=O)[C@]46C)C45OC[C@H]6C(=O)O[C@@H]1C[C@@]6(C)[C@H](C4=O)C23O5 (stereo partly specified),TGI,SR leukemia,2.46 µM
same,TGI,SK-MEL-2 melanoma,9.38 µM
same,TGI,MALME-3M melanoma,5.72 µM
same,TGI,T-47D breast,5.27 µM
same,TGI,CAKI-1 renal,7.53 µM
same,TGI,IGROV1 ovarian,2.58 µM
same,TGI,SF-268 CNS,1.91 µM
same,TGI,HT29 colon,8.99 µM
same,TGI,HS 578T breast,68.9 µM
same,TGI,A549 NSCLC,13.7 µM
same,TGI,SK-MEL-5 melanoma,2.86 µM
same,TGI,M14 melanoma,4.32 µM
same,TGI,RPMI-8226 leukemia,2.47 µM
same,TGI,OVCAR-3 ovarian,2.77 µM
same,TGI,KM12 colon,3.97 µM
same,TGI,NCI-H460 lung,8.69 µM
same,TGI,ACHN renal,8.45 µM
same,TGI,OVCAR-4 ovarian,8.27 µM
same,TGI,CCRF-CEM leukemia,1.45 µM
same,TGI,HCT-116 colon,4.97 µM
same,TGI,NCI-H23 lung,2.18 µM
same,TGI,MCF7 breast,3.3 µM
same,TGI,COLO 205 colon,1.93 µM
same,TGI,MDA-N,26.1 µM
same,TGI,786-0 renal,2.25 µM
same,TGI,RXF 393 renal,2.43 µM
same,TGI,SNB-75 CNS,20.7 µM
same,TGI,PC-3 prostate,12.9 µM
same,TGI,SW-620 colon,4.87 µM
same,TGI,HOP-92 NSCLC,5.67 µM
same,TGI,MDA-MB-435,5.2 µM
same,TGI,UACC-257 melanoma,4.98 µM
same,TGI,NCI-H522 lung,1.77 µM
same,TGI,HCT-15 colon,4.43 µM
same,TGI,SN12C renal,5.39 µM
same,TGI,TK-10 renal,3.97 µM
same,TGI,MDA-MB-231 breast,2.58 µM
same,TGI,MOLT-4 leukemia,21.4 µM
same,TGI,SK-OV-3 ovarian,18.6 µM
same,TGI,OVCAR-8 ovarian,12.6 µM
same,TGI,SF-295 CNS,16.2 µM
same,TGI,OVCAR-5 ovarian,10.7 µM
same,TGI,K-562 leukemia,> 100 µM
same,TGI,UACC-62 melanoma,3.46 µM
same,TGI,DU-145 prostate,7.77 µM
same,TGI,EKVX NSCLC,16.6 µM
same,TGI,HOP-62 NSCLC,10.4 µM
same,TGI,SF-539 CNS,0.923 µM
same,TGI,LOX IMVI melanoma,6.92 µM
same,TGI,SNB-19 CNS,11.8 µM
same,TGI,NCI/ADR-RES ovarian,> 100 µM
same,TGI,NCI-H226 lung,6.98 µM
same,TGI,HCC-2998 colon,10.5 µM
same,TGI,U251 CNS,5.77 µM
same,TGI,SK-MEL-28 melanoma,2.06 µM
CC(=O)Nc1cc(C(=O)Nc2cc(C(=O)Nc3cc(C(=O)Nc4cc(C(=O)Nc5cc(C(=O)NCCC(=O)NCCCN(C)C)n(C)c5)n(C)c4)n(C)c3)n(C)c2)n(C)c1,TGI,SK-MEL-2 melanoma,> 100 µM
same,TGI,MALME-3M melanoma,> 100 µM
same,TGI,T-47D breast,72.2 µM
same,TGI,CAKI-1 renal,44.6 µM
same,TGI,IGROV1 ovarian,> 100 µM
same,TGI,SF-268 CNS,> 100 µM
same,TGI,HT29 colon,> 100 µM
same,TGI,HS 578T breast,> 100 µM
same,TGI,A549 NSCLC,> 100 µM
same,TGI,SK-MEL-5 melanoma,> 100 µM
same,TGI,M14 melanoma,> 100 µM
same,TGI,RPMI-8226 leukemia,> 100 µM
same,TGI,OVCAR-3 ovarian,> 100 µM
same,TGI,KM12 colon,> 100 µM
same,TGI,NCI-H460 lung,> 100 µM
same,TGI,ACHN renal,> 100 µM
same,TGI,OVCAR-4 ovarian,> 100 µM
same,TGI,CCRF-CEM leukemia,73.9 µM
same,TGI,HL-60(TB) leukemia,> 100 µM
same,TGI,HCT-116 colon,> 100 µM
same,TGI,NCI-H23 lung,> 100 µM
same,TGI,MCF7 breast,> 100 µM
same,TGI,COLO 205 colon,> 100 µM
same,TGI,MDA-N,> 100 µM
same,TGI,786-0 renal,> 100 µM
same,TGI,RXF 393 renal,> 100 µM
same,TGI,SNB-75 CNS,> 100 µM
same,TGI,PC-3 prostate,> 100 µM
same,TGI,UO-31 renal,> 100 µM
same,TGI,SW-620 colon,> 100 µM
same,TGI,HOP-92 NSCLC,75 µM
same,TGI,MDA-MB-435,> 100 µM
same,TGI,UACC-257 melanoma,> 100 µM
same,TGI,NCI-H522 lung,55.6 µM
same,TGI,HCT-15 colon,> 100 µM
same,TGI,SN12C renal,> 100 µM
same,TGI,TK-10 renal,> 100 µM
same,TGI,MDA-MB-231 breast,> 100 µM
same,TGI,MOLT-4 leukemia,> 100 µM
same,TGI,SK-OV-3 ovarian,> 100 µM
same,TGI,OVCAR-8 ovarian,> 100 µM
same,TGI,SF-295 CNS,> 100 µM
same,TGI,A498 renal,> 100 µM
same,TGI,OVCAR-5 ovarian,> 100 µM
same,TGI,K-562 leukemia,> 100 µM
same,TGI,DU-145 prostate,> 100 µM
same,TGI,EKVX NSCLC,> 100 µM
same,TGI,HOP-62 NSCLC,> 100 µM
same,TGI,SF-539 CNS,> 100 µM
same,TGI,LOX IMVI melanoma,> 100 µM
same,TGI,SNB-19 CNS,> 100 µM
same,TGI,NCI/ADR-RES ovarian,> 100 µM
same,TGI,NCI-H226 lung,> 100 µM
same,TGI,HCC-2998 colon,> 100 µM
same,TGI,U251 CNS,> 100 µM
same,TGI,SK-MEL-28 melanoma,> 100 µM
